# In patent US20090312340A1 (priority 2007, published 2009):
# Tests used:
# [1] = tested on: patients with NSTE-ACS who underwent PCI; assay: MERLIN-TIMI 36 post-hoc analysis: VT, CV death and sudden cardiac death after PCI; type: in vivo, human; conditions: n = 737
# Method: The incidence of ventricular tachyarrhythmias after percutaneous coronary intervention (PCI) is low, but has been associated with worse clinical outcomes.
# The MERLIN-TIMI 36 trial randomized 6560 pts to RAN or placebo (PLA) stratified according to whether an early invasive or conservative medical strategy was planned. The target RAN dose was 1000 mg bid and could be titrated downward at the investigator's discretion. Continuous Holter monitoring was performed for the first 7 days after randomization. Patients (RAN=737, PLA=754) with at least 2 hrs of evaluable Holter data from start of PCI or patients with at least 1 hour of evaluable Holter data if Holter was restarted within 1 hour from start of PCI were included in this post-hoc analysis. The incidence of non-sustained VT episodes (≧100 bpm lasting at least 8 beats but <30 sec) post PCI was compared using Cochran-Mantel-Haenzel test for general association, stratified by intent for early invasive strategy.
# [2] = tested on: patients with non-ST elevation acute coronary syndrome; assay: MERLIN-TIMI 36: safety endpoints (death from any cause, symptomatic documented arrhythmias, CV hospitalization); type: in vivo
# [3] = tested on: patients with non-ST elevation acute coronary syndrome; assay: MERLIN-TIMI 36: ischemia on Holter / continuous ECG (CECG); type: in vivo, human; conditions: >72 hours after randomization, ranolazine vs placebo
# Method: At randomization, 6355 patients (99%) had 3-lead CECG monitoring initiated (median duration 6.9 days). The primary CECG endpoint was the rate of ST dep>1 mm from baseline lasting >1 minute with heart rate at onset <100 bpm. Exploratory analyses using ST dep>0.5 mm were also performed.
# women with NSTE ACS = assay: MERLIN-TIMI 36: outcomes in women with NSTE ACS; type: in vivo, human; conditions: ranolazine vs placebo
# [4] = tested on: patients with non-ST elevation ACS; assay: MERLIN-TIMI 36: HbA1c and hyperglycemia; type: in vivo, human
# Excerpt: The proportion of patients in the MERLIN-TIMI 36 study with HBA1C ≧7% is shown in Table 28 below (and see FIG. 15).
# The proportion of patients with HBA1C ≧7% (with diabetes or no diabetes) at various times during the MERLIN-TIMI 36 study is shown in Table 29 below (and FIG. 16).
# HbA1c data are reported as least-square means. Patients categorized as “diabetic” had been diagnosed as diabetic before or at the time of randomization. Patients categorized as “no diabetes” had not been diagnosed as diabetic before or at the time of randomization. Some patients characterized as “no diabetes” may have been diagnosed as “diabetic” during the trial; however, these patients are still listed in the “no diabetes” category in FIG. 4B.
# [5] = tested on: patients with non-ST elevation acute coronary syndrome; assay: MERLIN-TIMI 36: arrhythmias on continuous ECG (Holter) recording, first 7 days; type: in vivo, human; conditions: group allocated to ranolazine
# [6] = tested on: patients with non-ST elevation acute coronary syndrome; assay: MERLIN-TIMI 36: Seattle Angina Questionnaire scores at 4 months; type: in vivo, human
# Excerpt: The MERLIN-TIMI 36 secondary efficacy endpoint (ITT) Seattle Angina Questionnaire scores at 4 months for anginal frequency scale are shown in Table 16 below, and scores for physical limitation scale are shown in Table 17 below.
# [7] = tested on: patients with non-ST elevation acute coronary syndrome; assay: MERLIN-TIMI 36: arrhythmias on continuous ECG (Holter) recording, first 7 days; type: in vivo, human
# Method: The safety endpoint data for incidence of clinically significant arrhythmias during 7 day Holter monitoring from MERLIN-TIMI 36 is shown in Table 24 below.
# Continuous ECG (Holter) recording was performed for the first 7 days after randomization. Because of the known prolongation of the QT interval with ranolazine, analyses of a prespecified set of arrhythmias were a major objective of the trial. All arrhythmias were evaluated in the TIMI ECG Core Laboratory by cardiologists blinded to treatment and outcomes.
# Continuous ECG (cECG or Holter) recording was performed for the first 7 days after randomization. Prespecified arrhythmia analyses were evaluated by a core laboratory blinded to treatment and outcomes.
# [8] = PCI patients, average follow-up ~1 year
# [9] = within 2 hours from start of PCI
# [10] = Baseline (in-hospital visit prior to randomization), all patients dosed n = 3268
# [11] = Diabetes at enrollment (n = 1098), Baseline
# [12] = Diabetes at enrollment (n = 1098), Final Visit
# [13] = Diabetes at enrollment (n = 1098), Month 4
# [14] = Diabetes at enrollment (n = 1098), Month 8
# [15] = Diabetes at enrollment (n = 1098), Month 16
# [16] = Final Visit, all patients dosed n = 3268
# [17] = Month 4, all patients dosed n = 3268
# [18] = Month 8, all patients dosed n = 3268
# [19] = Month 16, all patients dosed n = 3268
# [20] = No Diabetes at enrollment (n = 2170), Baseline
# [21] = No Diabetes at enrollment (n = 2170), Final Visit
# [22] = No Diabetes at enrollment (n = 2170), Month 4
# [23] = No Diabetes at enrollment (n = 2170), Month 8
# [24] = No Diabetes at enrollment (n = 2170), Month 16
smiles,measurement,setting,value
"COc1ccccc1OCC(O)CN1CCN(CC(=O)Nc2c(C)cccc2C)CC1 (racemic) [Ranolazine, (±)-N-(2,6-dimethylphenyl)-4-[2-hydroxy-3-(2-methoxyphenoxy)-propyl]-1-piperazineacetamide]","CVD (cardiovascular death) - anytime, incidence",[1]; [8],0.9%
same,"CVD (cardiovascular death) - anytime, no. of patients",[1]; [8],7
same,"SCD (sudden cardiac death) - anytime, incidence",[1]; [8],0.1%
same,"SCD (sudden cardiac death) - anytime, no. of patients",[1]; [8],1
same,"CVD (cardiovascular death) - 30 days, incidence",[1]; PCI patients,0.5%
same,"CVD (cardiovascular death) - 30 days, no. of patients",[1]; PCI patients,4
same,"SCD (sudden cardiac death) - 30 days, incidence",[1]; PCI patients,0.1%
same,"SCD (sudden cardiac death) - 30 days, no. of patients",[1]; PCI patients,1
same,"VT ≧ 8 beats, % of patients with at least 1 episode",[1]; [9],1.1%
same,"VT ≧ 8 beats, no. of patients with at least 1 episode",[1]; [9],8
same,"Death or CV hospitalization endpoint-defining events: CV hospitalization, % of pts with events","[2]; all patients dosed, n = 3268",89.3%
same,"Death or CV hospitalization endpoint-defining events: CV hospitalization, no. of pts","[2]; all patients dosed, n = 3268",926
same,"Death or CV hospitalization endpoint-defining events: Death, % of pts with events","[2]; all patients dosed, n = 3268",10.7%
same,"Death or CV hospitalization endpoint-defining events: Death, no. of pts","[2]; all patients dosed, n = 3268",111
same,"Cardiac arrest NOS, incidence","[2]; human, in vivo",0.3%
same,"Cardiac arrest NOS, no. of pts","[2]; human, in vivo",10
same,"Symptomatic documented arrhythmias - overall, incidence","[2]; human, in vivo",3.0%
same,"Symptomatic documented arrhythmias - overall, no. of pts","[2]; human, in vivo",99
same,"Symptomatic documented bradyarrhythmias, incidence","[2]; human, in vivo",1.0%
same,"Symptomatic documented bradyarrhythmias, no. of pts","[2]; human, in vivo",34
same,"Symptomatic documented supraventricular arrhythmias, incidence","[2]; human, in vivo",1.2%
same,"Symptomatic documented supraventricular arrhythmias, no. of pts","[2]; human, in vivo",38
same,"Symptomatic documented ventricular arrhythmias, incidence","[2]; human, in vivo",0.7%
same,"Symptomatic documented ventricular arrhythmias, no. of pts","[2]; human, in vivo",22
same,"HR, total mortality",[2]; ranolazine vs placebo,0.99
same,"RR, CECG events",[3],0.86
same,"HR, worsening angina",women with NSTE ACS,0.61
same,"Patients with HbA1C ≧7%, no.",[4]; [10],655
same,Proportion of patients with HbA1C ≧7%,[4]; [10],24%
same,"Patients with HbA1C ≧7%, no.",[4]; [11],542
same,Proportion of patients with HbA1C ≧7%,[4]; [11],57%
same,"Patients with HbA1C ≧7%, no.",[4]; [12],324
same,Proportion of patients with HbA1C ≧7%,[4]; [12],42%
same,"Patients with HbA1C ≧7%, no.",[4]; [13],326
same,Proportion of patients with HbA1C ≧7%,[4]; [13],41%
same,"Patients with HbA1C ≧7%, no.",[4]; [14],263
same,Proportion of patients with HbA1C ≧7%,[4]; [14],44%
same,"Patients with HbA1C ≧7%, no.",[4]; [15],63
same,Proportion of patients with HbA1C ≧7%,[4]; [15],48%
same,"Patients with HbA1C ≧7%, no.",[4]; [16],416
same,Proportion of patients with HbA1C ≧7%,[4]; [16],17%
same,"Patients with HbA1C ≧7%, no.",[4]; [17],404
same,Proportion of patients with HbA1C ≧7%,[4]; [17],17%
same,"Patients with HbA1C ≧7%, no.",[4]; [18],335
same,Proportion of patients with HbA1C ≧7%,[4]; [18],18%
same,"Patients with HbA1C ≧7%, no.",[4]; [19],84
same,Proportion of patients with HbA1C ≧7%,[4]; [19],20%
same,"Patients with HbA1C ≧7%, no.",[4]; [20],113
same,Proportion of patients with HbA1C ≧7%,[4]; [20],6%
same,"Patients with HbA1C ≧7%, no.",[4]; [21],92
same,Proportion of patients with HbA1C ≧7%,[4]; [21],6%
same,"Patients with HbA1C ≧7%, no.",[4]; [22],78
same,Proportion of patients with HbA1C ≧7%,[4]; [22],5%
same,"Patients with HbA1C ≧7%, no.",[4]; [23],72
same,Proportion of patients with HbA1C ≧7%,[4]; [23],6%
same,"Patients with HbA1C ≧7%, no.",[4]; [24],21
same,Proportion of patients with HbA1C ≧7%,[4]; [24],7%
same,"Clinically reported sudden cardiac death, no. of patients",[5],56
same,"SAQ Physical Limitation Scale score, 25th percentile-75th percentile",[6]; N 2339,55.6-94.4
same,"SAQ Physical Limitation Scale score, Min-Max",[6]; N 2339,0-100
same,"SAQ Anginal Frequency Scale score, 25th percentile-75th percentile",[6]; N 2558,80-100
same,"SAQ Anginal Frequency Scale score, Median",[6]; N 2558,100
same,"SAQ Anginal Frequency Scale score, Min-Max",[6]; N 2558,0-100
same,"Supraventricular tachycardia on cECG, no. of patients","[7]; Example 9, patients with valid cECG recording",1413
same,"Any clinically significant arrhythmia during 7 day Holter, incidence","[7]; all patients dosed, n = 3268",71.3%
same,"Any clinically significant arrhythmia during 7 day Holter, no. of pts","[7]; all patients dosed, n = 3268",2330
same,"Bradycardic episode during 7 day Holter, incidence","[7]; all patients dosed, n = 3268",38.5%
same,"Bradycardic episode during 7 day Holter, no. of pts","[7]; all patients dosed, n = 3268",1257
same,"New onset atrial fibrillation during 7 day Holter, incidence","[7]; all patients dosed, n = 3268",1.7%
same,"New onset atrial fibrillation during 7 day Holter, no. of pts","[7]; all patients dosed, n = 3268",55
same,"Supraventricular tachycardia (any SVT >=120 bpm) during 7 day Holter, incidence","[7]; all patients dosed, n = 3268",43.2%
same,"Supraventricular tachycardia (any SVT >=120 bpm) during 7 day Holter, no. of pts","[7]; all patients dosed, n = 3268",1413
same,"Ventricular tachycardia (any VT >= 100 bpm >=3 beats) during 7 day Holter, incidence","[7]; all patients dosed, n = 3268",29.0%
same,"Ventricular tachycardia (any VT >= 100 bpm >=3 beats) during 7 day Holter, no. of pts","[7]; all patients dosed, n = 3268",948
same,Δ in patients with Sustained VT (>=30 sec),[7]; placebo vs ranolazine,0
same,Δ (%) Polymorphic VT >= 8 beats,[7]; ranolazine vs placebo,−21%
same,Δ (%) VT ≧ 3 beats (≧100 b/m),[7]; ranolazine vs placebo,−17%
same,Δ (%) VT ≧ 4 beats (≧100 b/m),[7]; ranolazine vs placebo,−30%
same,Δ (%) VT ≧ 8 beats (<30 sec),[7]; ranolazine vs placebo,−37%
